According to patent publication US20090306126A1, “Indole Derivatives” (ASTRAZENECA AB, priority 2006, published 2009):

Key:
[1] = target: mTOR PI kinase-related kinase (Homo sapiens, UniProt P42345); test: In vitro mTOR PI kinase-related kinase assay (AlphaScreen), Test (b); format: biochemical; conditions: recombinant mTOR (1362-2549), ATP 20 μM, read-out: IC50 versus mTOR PI kinase-related kinase
Experimental: (b) In Vitro mTOR PI Kinase-Related Kinase Assay
The assay used AlphaScreen technology (Gray et al, Analytical Biochemistry, 2003, 313: 234-245) to determine the ability of test compounds to inhibit phosphorylation by recombinant mTOR. […]
Each reaction was stopped by the addition of 10 μl of a mixture of EDTA (50 mM), bovine serum albumin (BSA; 0.5 mg/ml) and Tris-HCl pH7.4 buffer (50 mM) containing p70 S6 Kinase (T389) 1A5 Monoclonal Antibody (Cell Signalling Technology, Catalogue No. 9206B) and AlphaScreen Streptavidin donor and Protein A acceptor beads (200 ng; Perkin Elmer, Catalogue No. 6760002B and 6760137R respectively) were added and the assay plates were left for about 20 hours at room temperature in the dark. The resultant signals arising from laser light excitation at 680 nm were read using a Packard Envision instrument.
Phosphorylated biotinylated peptide is formed in situ as a result of mTOR mediated phosphorylation. […] Upon laser light excitation at 680 nm, the donor bead:acceptor bead complex produces a signal that can be measured. […]
mTOR enzyme inhibition for a given test compound was expressed as an IC50 value.

[2] = test system: phosphorylation of Serine 473 in Akt; test: In vitro phospho-Ser473 Akt assay in MDA-MB-468 cells, Test (c); format: cell-based; conditions: Homo sapiens, 2 hours, read-out: IC50, inhibition of phosphorylation of Serine 473 in Akt
Experimental: (c) In Vitro Phospho-Ser473 Akt Assay
This assay determines the ability of test compounds to inhibit phosphorylation of Serine 473 in Akt as assessed using Acumen Explorer technology (TTP LabTech Limited, Royston, Herts, SG8 6EE, UK), a plate reader that can be used to rapidly quantitate features of images generated by laser-scanning.
A MDA-MB-468 human breast adenocarcinoma cell line (LGC Promochem, Teddington, Middlesex, UK, Catalogue No. HTB-132) was routinely maintained at 37° C. with 5% CO2 up to a confluency of 70-90% in DMEM containing 10% FCS and 1% L-glutamine.
For the assay, the cells were detached from the culture flask using ‘Accutase’ (Innovative Cell Technologies Inc., San Diego, Calif., USA; Catalogue No. AT104) using standard tissue culture methods and resuspended in media to give 5.5×10^4 cells per ml. Aliquots (90 μl) were seeded into each of the inner 60 wells of a black ‘Costar’ 96-well plate (Corning Inc., NY, USA; Catalogue No. 3904) to give a density of ˜5000 cells per well. Aliquots (90 μl) of culture media were placed in the outer wells to prevent edge effects. [An alternative cell handling procedure involved the maintenance of the cells in a ‘SelecT’ robotic device (The Automation Partnership, Royston, Herts SG8 5WY, UK). Cells were resuspended in media to give 5×10^4 cells per ml. Aliquots (100 μl) were seeded into the wells of a black ‘Costar’ 96-well plate.] The cells were incubated overnight at 37° C. with 5% CO2 to allow them to adhere.
On day 2, the cells were treated with test compounds. Test compounds were prepared as 10 mM stock solutions in DMSO and serially diluted as required with DMSO and with growth media to give a range of concentrations that were 10-fold the required final test concentrations. Aliquots (10 μl) of each compound dilution were placed in duplicate wells to give the final required concentrations. As a minimum response control, each plate contained wells having a final concentration of 30 μM LY294002 (Calbiochem, Beeston, UK, Catalogue No. 440202). As a maximum response control, wells contained 0.5% DMSO instead of test compound. [An alternative cell treatment procedure involved the transfer of test compounds to the wells using an ‘Echo 550’ liquid dispenser (Labcyte Inc., Sunnyvale, Calif. 94089, USA). Test compounds were prepared as 10 mM stock solutions in DMSO and aliquots (40 μl) of each compound were dispensed into one well of a quadrant of wells within a 384-well plate (Labcyte Inc., Catalogue No. P-05525-CV1). Four concentrations of each compound were prepared in each quadrant of wells in the 384-well plate using a ‘Hydra II’ pipettor (Matrix Technologies Corporation, Handforth SK9 3LP, UK). […]

[3] = target: T1, p110α Type Ia human PI3K (Homo sapiens, UniProt P42336); test: In vitro PI3K enzyme assay (AlphaScreen), Test (a); format: biochemical; conditions: recombinant enzyme, ATP 4 μM, read-out: IC50 versus p110α Type Ia human PI3K
T1 construct: full length DNA of each of the p110α, p110β and p110δ Type Ia human PI3K p110 isoforms; 6-His; made in house
Text: (a) In Vitro PI3K Enzyme Assay
The assay used AlphaScreen technology (Gray et al., Analytical Biochemistry, 2003, 313: 234-245) to determine the ability of test compounds to inhibit phosphorylation by recombinant Type I PI3K enzymes of the lipid PI(4,5)P2.
DNA fragments encoding human PI3K catalytic and regulatory subunits were isolated from cDNA libraries using standard molecular biology and PCR cloning techniques. The selected DNA fragments were used to generate baculovirus expression vectors. In particular, full length DNA of each of the p110α, p110β and p110δ Type Ia human PI3K p110 isoforms (EMBL Accession Nos. HSU79143, S67334, Y10055 for p110α, p110β and p110δ respectively) were sub-cloned into a pDEST10 vector (Invitrogen Limited, Fountain Drive, Paisley, UK). The vector is a Gateway-adapted version of Fastbac1 containing a 6-His epitope tag. A truncated form of Type Ib human PI3K p110γ isoform corresponding to amino acid residues 144-1102 (EMBL Accession No. X8336A) and the full length human p85α regulatory subunit (EMBL Accession No. HSP13KIN) were also sub-cloned into pFastBac1 vector containing a 6-His epitope tag. The Type Ia p110 constructs were co-expressed with the p85α regulatory subunit. Following expression in the baculovirus system using standard baculovirus expression techniques, expressed proteins were purified using the His epitope tag using standard purification techniques.
DNA corresponding to amino acids 263 to 380 of human general receptor for phosphoinositides (Grp1) PH domain was isolated from a cDNA library using standard molecular biology and PCR cloning techniques. The resultant DNA fragment was sub-cloned into a pGEX 4T1 E. coli expression vector containing a GST epitope tag (Amersham Pharmacia Biotech, Rainham, Essex, UK) as described by Gray et al., Analytical Biochemistry, 2003, 313: 234-245). The GST-tagged Grp1 PH domain was expressed and purified using standard techniques.
Test compounds were prepared as 10 mM stock solutions in DMSO and diluted into water as required to give a range of final assay concentrations. Aliquots (2 μl) of each compound dilution were placed into a well of a Greiner 384-well low volume (LV) white polystyrene plate (Greiner Bio-one, Brunel Way, Stonehouse, Gloucestershire, UK Catalogue No. 784075). […]
Biotinylated-DiC8-PI(3,4,5)P3 (50 nM; Cell Signals Inc., Catalogue No. 107), recombinant purified GST-Grp1 PH protein (2.5 nM) and AlphaScreen Anti-GST donor and acceptor beads (100 ng; Packard Bioscience Limited, Station Road, Pangbourne, Berkshire, UK, Catalogue No. 6760603M) were added and the assay plates were left for about 5 to 20 hours at room temperature in the dark. The resultant signals arising from laser light excitation at 680 nm were read using a Packard AlphaQuest instrument. […]

T1 sequence (P42336 whole entry, canonical isoform): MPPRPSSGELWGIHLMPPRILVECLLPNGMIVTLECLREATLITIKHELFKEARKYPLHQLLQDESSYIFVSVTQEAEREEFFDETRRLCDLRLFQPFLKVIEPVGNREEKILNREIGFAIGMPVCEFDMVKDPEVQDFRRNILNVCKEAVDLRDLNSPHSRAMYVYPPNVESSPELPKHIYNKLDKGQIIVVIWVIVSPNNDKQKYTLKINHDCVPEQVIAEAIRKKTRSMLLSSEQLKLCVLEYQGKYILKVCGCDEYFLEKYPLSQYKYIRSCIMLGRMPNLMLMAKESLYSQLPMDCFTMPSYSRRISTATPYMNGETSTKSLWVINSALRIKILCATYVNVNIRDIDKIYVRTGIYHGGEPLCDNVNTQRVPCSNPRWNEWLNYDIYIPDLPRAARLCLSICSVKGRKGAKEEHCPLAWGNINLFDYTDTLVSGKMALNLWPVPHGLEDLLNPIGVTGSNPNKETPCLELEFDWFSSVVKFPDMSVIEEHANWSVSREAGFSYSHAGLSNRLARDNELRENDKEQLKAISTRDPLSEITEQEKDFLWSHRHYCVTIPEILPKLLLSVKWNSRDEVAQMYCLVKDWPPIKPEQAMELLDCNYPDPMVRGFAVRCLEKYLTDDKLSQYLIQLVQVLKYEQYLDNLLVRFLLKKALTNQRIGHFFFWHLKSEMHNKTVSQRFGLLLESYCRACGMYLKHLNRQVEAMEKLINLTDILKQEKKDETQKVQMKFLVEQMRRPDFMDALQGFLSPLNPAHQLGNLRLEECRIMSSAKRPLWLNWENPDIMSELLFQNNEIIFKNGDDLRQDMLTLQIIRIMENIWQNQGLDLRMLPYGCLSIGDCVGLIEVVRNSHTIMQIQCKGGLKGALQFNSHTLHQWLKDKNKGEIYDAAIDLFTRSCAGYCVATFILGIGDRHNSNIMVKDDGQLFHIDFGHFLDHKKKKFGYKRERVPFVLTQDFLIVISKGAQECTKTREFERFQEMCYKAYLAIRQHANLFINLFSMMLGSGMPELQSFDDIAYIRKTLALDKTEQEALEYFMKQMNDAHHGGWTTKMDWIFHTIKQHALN
T1 sequence (P27986 whole entry partner, canonical isoform): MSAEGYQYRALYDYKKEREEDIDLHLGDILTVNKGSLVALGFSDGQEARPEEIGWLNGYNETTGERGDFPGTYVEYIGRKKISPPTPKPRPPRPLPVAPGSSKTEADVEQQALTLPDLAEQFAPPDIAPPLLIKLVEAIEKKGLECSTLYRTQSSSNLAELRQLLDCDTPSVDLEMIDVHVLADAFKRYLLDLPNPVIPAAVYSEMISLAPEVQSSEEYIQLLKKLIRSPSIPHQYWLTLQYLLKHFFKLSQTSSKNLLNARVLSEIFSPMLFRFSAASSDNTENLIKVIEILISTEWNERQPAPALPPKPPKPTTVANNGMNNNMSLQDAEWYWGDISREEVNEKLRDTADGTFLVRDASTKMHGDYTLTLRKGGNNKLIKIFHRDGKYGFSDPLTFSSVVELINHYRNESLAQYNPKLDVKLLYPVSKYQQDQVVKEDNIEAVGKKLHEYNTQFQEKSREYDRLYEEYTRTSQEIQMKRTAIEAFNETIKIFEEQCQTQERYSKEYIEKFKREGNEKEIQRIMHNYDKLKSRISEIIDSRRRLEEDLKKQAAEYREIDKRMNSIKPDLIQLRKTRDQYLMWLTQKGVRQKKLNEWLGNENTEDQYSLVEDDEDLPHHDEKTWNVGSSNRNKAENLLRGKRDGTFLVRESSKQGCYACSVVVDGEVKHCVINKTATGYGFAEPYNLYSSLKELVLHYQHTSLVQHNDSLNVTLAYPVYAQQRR
mTOR PI kinase-related kinase, sequence (P42345 1362-2549): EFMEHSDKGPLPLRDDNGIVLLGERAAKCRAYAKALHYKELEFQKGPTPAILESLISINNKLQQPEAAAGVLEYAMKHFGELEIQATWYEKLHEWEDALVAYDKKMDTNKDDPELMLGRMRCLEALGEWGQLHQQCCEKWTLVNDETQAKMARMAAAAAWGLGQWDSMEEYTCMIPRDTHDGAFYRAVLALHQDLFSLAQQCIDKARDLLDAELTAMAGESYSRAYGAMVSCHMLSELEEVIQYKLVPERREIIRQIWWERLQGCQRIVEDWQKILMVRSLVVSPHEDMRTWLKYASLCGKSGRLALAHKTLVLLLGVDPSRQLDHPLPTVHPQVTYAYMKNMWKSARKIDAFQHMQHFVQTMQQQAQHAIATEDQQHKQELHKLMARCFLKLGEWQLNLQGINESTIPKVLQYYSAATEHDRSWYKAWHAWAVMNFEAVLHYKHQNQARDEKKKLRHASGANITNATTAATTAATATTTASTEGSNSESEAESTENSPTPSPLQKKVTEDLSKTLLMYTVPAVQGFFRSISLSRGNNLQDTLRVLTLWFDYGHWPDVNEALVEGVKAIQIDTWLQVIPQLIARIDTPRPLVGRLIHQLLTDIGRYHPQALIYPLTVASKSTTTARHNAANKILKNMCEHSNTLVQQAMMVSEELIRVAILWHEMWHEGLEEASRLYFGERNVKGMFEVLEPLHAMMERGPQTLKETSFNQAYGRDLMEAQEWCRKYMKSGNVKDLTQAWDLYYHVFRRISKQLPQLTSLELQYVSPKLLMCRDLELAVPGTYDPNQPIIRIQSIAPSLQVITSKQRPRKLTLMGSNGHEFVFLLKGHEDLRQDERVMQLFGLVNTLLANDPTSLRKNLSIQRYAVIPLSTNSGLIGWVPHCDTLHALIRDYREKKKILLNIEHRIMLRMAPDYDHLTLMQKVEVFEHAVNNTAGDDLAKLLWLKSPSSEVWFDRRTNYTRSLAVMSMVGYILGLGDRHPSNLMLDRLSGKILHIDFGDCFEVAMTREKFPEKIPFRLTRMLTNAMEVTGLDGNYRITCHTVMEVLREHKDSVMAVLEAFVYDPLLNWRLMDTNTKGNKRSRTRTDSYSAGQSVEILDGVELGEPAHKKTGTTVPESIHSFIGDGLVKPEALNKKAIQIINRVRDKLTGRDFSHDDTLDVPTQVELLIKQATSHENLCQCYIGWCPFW

Row | Compound | IC50 [1] [nM] | IC50 [2] [nM] | IC50 [3] [nM]
1 | CS(=O)(=O)Nc1cc(-c2cnc3[nH]ccc3c2)cnc1Cl [Example 1, N-[2-chloro-5-(1H-pyrrolo[2,3-b]pyridin-5-yl)pyridin-3-yl]methanesulphonamide] | ~1000 | ~13000 | ~500
2 | O=S(=O)(Nc1cc(-c2cnc3[nH]ccc3c2)cnc1Cl)c1ccccc1 [Example 3, N-[2-chloro-5-(1H-pyrrolo[2,3-b]pyridin-5-yl)pyridin-3-yl]benzenesulphonamide] |  | ~5000 | ~200
3 | Cc1nc2[nH]cnc2cc1-c1cnc(Cl)c(NS(=O)(=O)c2ccccc2)c1 [Example 7, N-[2-chloro-5-(5-methyl-3H-imidazo[4,5-b]pyridin-6-yl)pyridin-3-yl]benzenesulphonamide] |  | ~2000 | ~500
4 | Cc1nc2[nH]ccc2cc1-c1cnc(Cl)c(NS(=O)(=O)c2ccccc2)c1 [Example 8, N-[2-chloro-5-(6-methyl-1H-pyrrolo[2,3-b]pyridin-5-yl)pyridin-3-yl]benzenesulphonamide] |  | ~3000 | ~100
